Experiments:
Rhesus monkey = experiment: Bronchorelaxant activity in rhesus monkey assessed as inhibition of methacholine-induced bronchoconstriction; type: functional; conditions: Macaca mulatta
[1] = molecular target: Beta-2 adrenergic receptor (Cavia porcellus) (UniProt Q8K4Z4); experiment: Agonist activity at beta2-adrenoceptor in guinea-pig tracheal-strip assessed as duration of action on inhibition of electrically-stimulated muscle contraction; type: functional, tissue-based; conditions: Trachea
Sequence of Beta-2 adrenergic receptor (Cavia porcellus) (Q8K4Z4 whole entry, looked up): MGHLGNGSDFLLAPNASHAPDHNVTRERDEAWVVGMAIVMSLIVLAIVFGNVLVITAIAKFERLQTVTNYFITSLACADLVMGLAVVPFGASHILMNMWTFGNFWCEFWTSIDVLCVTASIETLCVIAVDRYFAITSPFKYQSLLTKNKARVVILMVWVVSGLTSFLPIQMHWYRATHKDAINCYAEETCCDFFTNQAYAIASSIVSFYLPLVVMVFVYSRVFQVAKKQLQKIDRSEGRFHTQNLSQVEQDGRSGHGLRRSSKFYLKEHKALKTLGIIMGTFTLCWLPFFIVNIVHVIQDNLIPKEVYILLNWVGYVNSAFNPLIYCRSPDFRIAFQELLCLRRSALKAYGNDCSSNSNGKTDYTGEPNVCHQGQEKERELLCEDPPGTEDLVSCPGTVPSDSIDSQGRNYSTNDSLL

[2] = molecular target: Beta-1 adrenergic receptor (Homo sapiens, UniProt P08588); experiment: Binding affinity to human beta1-adrenoceptor by radioligand binding assay
Sequence of Beta-1 adrenergic receptor (P08588 whole entry): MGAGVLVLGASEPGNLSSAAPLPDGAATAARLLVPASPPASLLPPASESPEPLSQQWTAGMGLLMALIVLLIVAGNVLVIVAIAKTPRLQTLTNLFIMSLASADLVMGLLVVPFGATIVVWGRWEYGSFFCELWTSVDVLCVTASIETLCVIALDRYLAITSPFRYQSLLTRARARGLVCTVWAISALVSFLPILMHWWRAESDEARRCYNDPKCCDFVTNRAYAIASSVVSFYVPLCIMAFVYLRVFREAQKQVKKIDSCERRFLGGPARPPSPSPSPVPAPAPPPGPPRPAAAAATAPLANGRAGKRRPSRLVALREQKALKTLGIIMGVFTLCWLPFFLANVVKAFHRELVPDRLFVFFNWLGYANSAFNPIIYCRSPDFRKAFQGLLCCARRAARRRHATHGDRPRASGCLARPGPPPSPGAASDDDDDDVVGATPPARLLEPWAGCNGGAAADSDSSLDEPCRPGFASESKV

[3] = molecular target: T1, Beta-2 adrenergic receptor (Homo sapiens, UniProt P07550); experiment: Binding affinity to human beta2-adrenoceptor by radioligand binding assay
Target sequence in this assay (P07550 whole entry): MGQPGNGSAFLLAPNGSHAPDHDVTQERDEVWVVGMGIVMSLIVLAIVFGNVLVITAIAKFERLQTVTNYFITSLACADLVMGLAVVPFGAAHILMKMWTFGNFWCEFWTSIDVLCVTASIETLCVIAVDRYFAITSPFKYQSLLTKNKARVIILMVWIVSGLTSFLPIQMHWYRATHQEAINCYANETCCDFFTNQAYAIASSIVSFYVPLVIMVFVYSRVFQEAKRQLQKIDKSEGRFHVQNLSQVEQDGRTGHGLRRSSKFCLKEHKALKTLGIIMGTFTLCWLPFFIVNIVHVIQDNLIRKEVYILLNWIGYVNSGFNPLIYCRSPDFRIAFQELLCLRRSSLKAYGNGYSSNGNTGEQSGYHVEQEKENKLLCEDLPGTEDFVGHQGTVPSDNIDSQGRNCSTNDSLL

[4] = molecular target: Beta-2 adrenergic receptor (Cavia porcellus, UniProt Q8K4Z4); experiment: Agonist activity at beta2-adrenoceptor in guinea-pig tracheal-strip assessed as inhibition of electrically-stimulated muscle contraction; type: functional, tissue-based, Trachea
Sequence of Beta-2 adrenergic receptor (Cavia porcellus, UniProt Q8K4Z4) (Q8K4Z4 whole entry): as the sequence (Q8K4Z4 whole entry, looked up) above

Homo sapiens = species: Homo sapiens; experiment: Selectivity ratio of Ki for human beta1-adrenoceptor to Ki for human beta2-adrenoceptor
D(2) dopamine receptor [5] = molecular target: T2, D(2) dopamine receptor (Homo sapiens, UniProt P14416); experiment: Intrinsic efficacy at human dopamine D2 receptor expressed in CHO cells assessed as increase in GTPgamma35S binding by scintillation proximity assay relative to dopamine; type: functional, cell-based
T2 sequence (P14416 whole entry): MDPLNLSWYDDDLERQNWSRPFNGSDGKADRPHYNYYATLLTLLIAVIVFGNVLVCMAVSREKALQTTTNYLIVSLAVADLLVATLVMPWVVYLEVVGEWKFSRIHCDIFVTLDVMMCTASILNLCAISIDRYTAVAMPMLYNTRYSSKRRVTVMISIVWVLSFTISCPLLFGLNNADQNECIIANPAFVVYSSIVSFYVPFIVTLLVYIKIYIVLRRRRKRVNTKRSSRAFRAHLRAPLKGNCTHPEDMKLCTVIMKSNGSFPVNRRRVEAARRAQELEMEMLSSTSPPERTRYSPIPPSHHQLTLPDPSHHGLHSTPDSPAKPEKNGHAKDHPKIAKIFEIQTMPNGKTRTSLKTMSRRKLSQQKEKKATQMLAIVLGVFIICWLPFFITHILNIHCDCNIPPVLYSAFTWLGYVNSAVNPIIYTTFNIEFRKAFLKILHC

D(2) dopamine receptor [6] = molecular target: T2, D(2) dopamine receptor; experiment: Agonist activity at human dopamine D2 receptor expressed in CHO cells assessed as increase in GTPgamma35S binding by scintillation proximity assay; type: functional, cell-based
[7] = molecular target: T1, Beta-2 adrenergic receptor; experiment: Intrinsic efficacy at beta2-adrenoceptor in human bronchial smooth-muscle cell by cAMP assay; type: functional
Target sequence in this assay (P07550 whole entry, looked up): as the sequence (P07550 whole entry) above

[8] = molecular target: T1, Beta-2 adrenergic receptor; experiment: Ratio of indacaterol EC50 to compound EC50 for beta2-adrenoceptor in human bronchial smooth-muscle cell by cAMP assay; type: functional
Target sequence in this assay (P07550 whole entry, looked up): as the sequence (P07550 whole entry) above

[9] = molecular target: T1, Beta-2 adrenergic receptor; experiment: Agonist activity at beta2-adrenoceptor in human bronchial smooth-muscle cell by cAMP assay; type: functional
Target sequence in this assay (P07550 whole entry): as above

[10] = molecular target: T1, Beta-2 adrenergic receptor; experiment: Kinetic binding affinity to human beta2-adrenoceptor
Target sequence in this assay (P07550 whole entry): as above

[11] = molecular target: T1, Beta-2 adrenergic receptor; experiment: Ratio of indacaterol Ki to compound Ki for human beta2-adrenoceptor
Target sequence in this assay (P07550 whole entry, looked up): as the sequence (P07550 whole entry) above

Row | Structure (SMILES) | TIME [1] | Ki [2] | Ki [3] | Ratio Ki (Homo sapiens) | also measured
1 | CCc1cc2c(cc1CC)CC(NC[C@H](O)c1ccc(O)c3c1CCC(=O)N3)C2 | 0.542 h | 183 nM | 45 nM | 4.1 | ED80 (Rhesus monkey): 0.0532 mg/kg; IC50 [4]: 3.9 nM
2 | CCCCc1ccc2c(c1)CC(NC[C@H](O)c1ccc(O)c3[nH]c(=O)ccc13)C2 (some centres undefined) |  | 259 nM | 19.4 nM | 13.4 | 
3 | CCc1cc2c(cc1CC)CC(NCC(O)c1ccc(O)c3[nH]c(=O)c(C)cc13)C2 (racemic) |  | 227 nM | 382 nM | 0.59 | 
4 | Cc1c(C)c(C)c2c(c1C)CC(NC[C@H](O)c1ccc(O)c3[nH]c(=O)ccc13)C2 |  | 421 nM | 175 nM | 2.4 | 
5 | O=c1[nH]c2c(O)ccc(CCNCCS(=O)(=O)CCCOCCc3ccccc3)c2s1 [SIBENADET] |  | 3920 nM | 4 nM | 981 | Efficacy (D(2) dopamine receptor [5]): 106%; EC50 (D(2) dopamine receptor [6]): 4.5 nM
6 | CCc1cc2c(cc1CC)CC(NCCc1ccc(O)c3[nH]c(=O)ccc13)C2 | 2.18 h | 478 nM | 261 nM | 1.8 | EC50 (D(2) dopamine receptor [6]): > 10000 nM; IC50 [4]: 240 nM
7 | CCc1cc2c(cc1CC)CC(NCC(O)c1c(C)cc(O)c3[nH]c(=O)ccc13)C2 (racemic) |  | > 10000 nM | 515 nM | > 19 | 
8 | NC(=O)C(c1ccccc1)(c1ccccc1)[C@@H]1CCN(CCc2ccc3c(c2)CCO3)C1 [DARIFENACIN] | 0.5 h |  |  |  | Efficacy [7]: 85%
9 | CCc1cc2c(cc1CC)CC(C)(NC[C@H](O)c1ccc(O)c3[nH]c(=O)ccc13)C2 |  | 1.9 nM | 0.6 nM | 3.2 | Ratio EC50 [8]: 7.3; EC50 [9]: 0.28 nM; Kd [10]: 0.26 nM; Efficacy [7]: 116%; Ratio Ki [11]: > 10
